Laboratory results from patent publication US7514424B2, “Substituted 4-(4-piperidin-4-yl-piperazin-1-yl)-azepane derivatives and their use as neurokinin antagonists” (Janssen Pharmaceutica N.V., priority 2002, dated 2009).

Columns and labels:
Assay in all cases: Signal transduction (intracellular Ca++, FLIPR), functional antagonistic activity
Type in all cases: cell-based
h-NK1 = h-NK1 (Homo sapiens, UniProt P25103); details: Ca++ peak, read-out: pIC50 h-NK1 (converted)
Description: (§1) This test evaluates in vitro functional NK1 antagonistic activity. For the measurements of intracellular Ca^++ concentrations the cells were grown on 96-well (black wall/transparent bottom) plates from Costar for 2 days until they reached confluence. The cells were loaded with 2 μM Fluo3 in DMEM containing 0.1% BSA and 2.5 mM probenecid for 1 h at 37° C. They were washed 3× with a Krebs buffer (140 mM NaCl, 1 mM MgCl2×6H2O, 5 mM KCl, 10 mM glucose, 5 mM HEPES; 1.25 mM CaCl2; pH 7.4) containing 2.5 mM probenecid and 0.1% BSA (Ca^++-buffer). The cells were preincubated with a concentration range of antagonists for 20 min at RT and Ca^++-signals after addition of the agonists were measured in a Fluorescence Image Plate
(§2) Reader (FLIPR from Molecular Devices, Crawley, England). The peak of the Ca^++-transient was considered as the relevant signal and the mean values of corresponding wells were analysed as described below.
(§3) The sigmoidal dose response curves were analysed by computerised curve-fitting, using the GraphPad Program. The EC50-value of a compound is the effective dose showing 50% of maximal effect. For mean curves the response to the agonist with the highest potency was normalised to 100%. For antagonist responses the IC50-value was calculated using non-linear regression.
(§4) The last colums indicates—without being limited thereto—for which action the compounds might be most suitable. Of course, since for some neurokinin receptors no data was determined, it is obvious that these compounds might be attributed to another suitable use.

h-NK3 = target: T1, h-NK3 (Homo sapiens, UniProt P29371); details: Ca++ peak, read-out: pIC50 h-NK3 (converted)
T1 sequence (P29371 1-465): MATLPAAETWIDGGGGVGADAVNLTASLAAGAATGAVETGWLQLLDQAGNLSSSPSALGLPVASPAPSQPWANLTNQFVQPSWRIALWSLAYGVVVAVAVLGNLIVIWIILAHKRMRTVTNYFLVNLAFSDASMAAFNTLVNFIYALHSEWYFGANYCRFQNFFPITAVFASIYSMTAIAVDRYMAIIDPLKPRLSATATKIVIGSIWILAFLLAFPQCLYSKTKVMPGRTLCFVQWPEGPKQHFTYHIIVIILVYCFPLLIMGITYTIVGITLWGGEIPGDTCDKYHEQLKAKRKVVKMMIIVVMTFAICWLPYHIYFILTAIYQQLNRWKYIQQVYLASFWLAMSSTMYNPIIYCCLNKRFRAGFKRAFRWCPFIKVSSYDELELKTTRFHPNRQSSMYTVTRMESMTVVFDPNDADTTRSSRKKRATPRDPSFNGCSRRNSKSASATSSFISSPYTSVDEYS
Description: [Worded in the source for another target; this target is reported under the same test.] as §1, §2, §3, §4

h-NK2 = target: T2, h-NK2 (Homo sapiens, UniProt P21452); details: Ca++ peak, read-out: pIC50 h-NK2 (converted)
T2 sequence (P21452 1-398): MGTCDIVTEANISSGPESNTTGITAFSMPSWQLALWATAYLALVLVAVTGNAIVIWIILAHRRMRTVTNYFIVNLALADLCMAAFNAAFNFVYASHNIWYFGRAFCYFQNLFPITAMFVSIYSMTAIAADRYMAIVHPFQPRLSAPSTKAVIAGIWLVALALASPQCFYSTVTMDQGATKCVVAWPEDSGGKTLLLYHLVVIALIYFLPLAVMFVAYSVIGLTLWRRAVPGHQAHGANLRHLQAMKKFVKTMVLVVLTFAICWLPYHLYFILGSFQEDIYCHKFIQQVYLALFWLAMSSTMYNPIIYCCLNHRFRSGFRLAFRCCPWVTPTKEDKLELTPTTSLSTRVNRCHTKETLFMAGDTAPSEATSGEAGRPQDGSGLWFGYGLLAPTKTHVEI
Description: [Worded in the source for another target; this target is reported under the same test.] as §1, §2, §3, §4

Chain of h-NK1 (P25103 whole entry): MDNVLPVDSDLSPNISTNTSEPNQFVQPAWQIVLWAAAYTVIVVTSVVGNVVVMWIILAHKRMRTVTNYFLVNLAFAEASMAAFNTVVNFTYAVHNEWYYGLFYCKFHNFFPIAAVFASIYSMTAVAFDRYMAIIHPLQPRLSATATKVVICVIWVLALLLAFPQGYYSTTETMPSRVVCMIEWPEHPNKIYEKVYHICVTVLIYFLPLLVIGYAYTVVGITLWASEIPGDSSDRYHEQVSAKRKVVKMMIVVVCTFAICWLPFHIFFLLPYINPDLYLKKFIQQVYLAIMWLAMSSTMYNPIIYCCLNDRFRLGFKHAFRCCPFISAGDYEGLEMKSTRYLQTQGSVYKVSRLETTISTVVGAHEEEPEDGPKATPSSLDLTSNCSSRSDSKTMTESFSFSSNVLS

IC50 (h-NK1) [µM]	IC50 (h-NK3) [µM]	IC50 (h-NK2) [µM]	SMILES
0.302	–	–	Cc1cccc(C(=O)N2CCCC(N3CCN(C4CCN(C(=O)c5cc(C(F)(F)F)cc(C(F)(F)F)c5)C(Cc5ccccc5)C4)CC3)CC2)c1 (stereo not shown) [Compound 9]
0.148	–	–	O=C(c1ccc(F)c(F)c1)N1CCCC(N2CCN(C3CCN(C(=O)c4cc(C(F)(F)F)cc(C(F)(F)F)c4)C(Cc4ccccc4)C3)CC2)CC1 (stereo not shown) [Compound 5]
0.2	–	–	O=C(c1ccccc1)N1CCCC(N2CCN(C3CCN(C(=O)c4cc(C(F)(F)F)cc(C(F)(F)F)c4)C(Cc4ccccc4)C3)CC2)CC1 (stereo not shown) [Compound 3]
0.166	–	–	CCOC(=O)N1CCCC(N2CCN(C3CCN(C(=O)c4cc(C(F)(F)F)cc(C(F)(F)F)c4)C(Cc4ccccc4)C3)CC2)CC1 (stereo not shown) [Compound 4]
0.0324	10	–	CC(C)(C)OC(=O)N1CCCC(N2CCN(C3CCN(C(=O)c4cc(C(F)(F)F)cc(C(F)(F)F)c4)C(Cc4ccccc4)C3)CC2)CC1 (stereo not shown) [Compound 1]
0.158	1.35	9.33	O=C(c1cccc(F)c1)N1CCCC(N2CCN(C3CCN(C(=O)c4cc(C(F)(F)F)cc(C(F)(F)F)c4)C(Cc4ccccc4)C3)CC2)CC1 (stereo not shown) [Compound 6]
0.0282	10	–	Cc1cc(C(=O)N2CCCC(N3CCN(C4CCN(C(=O)c5cc(C(F)(F)F)cc(C(F)(F)F)c5)C(Cc5ccccc5)C4)CC3)CC2)no1 (stereo not shown) [Compound 8]
0.0288	1.91	–	O=C(c1ccoc1)N1CCCC(N2CCN(C3CCN(C(=O)c4cc(C(F)(F)F)cc(C(F)(F)F)c4)C(Cc4ccccc4)C3)CC2)CC1 (stereo not shown) [Compound 7]
